Legend:
[1] = target: T1, Dimer of Gag-Pol polyprotein [489-587] (Human immunodeficiency virus 1, UniProt P12497); experiment: Protease Inhibition Assay
T1 construct: 489-587
Text: (§1) HIV-1 protease was purified and refolded from E. coli inclusion bodies. The substrate used spans the p17-p24 processing site (R-V-S-Q-N-Y-P-I-V-Q-N-K) and was derivatized with biotin and fluorescein isothiocyanate (FITC) at the amino and carboxy termini. In the presence of HIV-l protease, the substrate is rapidly cleaved into two parts. The biotinylated amino terminal fragment binds to the avidin beads while the FITC-containing carboxy1 terminal fragment is removed through the membrane. […] The bound fluorescence is obtained by processing on an IDEXX Screen Machine. Determination of Ki values with this assay requires analysis under conditions in which substrate concentration resides substantially below Km and the inhibitor concentrations greatly exceeds the Ki value and the enzyme concentration.

[2] = target: T2, Dimer of Gag-Pol polyprotein [514-612] (Human immunodeficiency virus 2, UniProt P04584); experiment: Protease Inhibition Assay
T2 construct: 514-612
T2 sequence (P04584 whole entry): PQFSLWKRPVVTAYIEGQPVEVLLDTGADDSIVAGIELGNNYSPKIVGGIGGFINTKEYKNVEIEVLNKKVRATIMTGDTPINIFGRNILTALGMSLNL
Text: as §1

O=c1oc2c(c(O)c1C(c1ccccc1)C1CC1)CCCCCC2 (configuration not stated)
Ki [1]: 15 nM

CCC(Cc1ccccc1)c1cc(O)c(C(CC)c2ccccc2)c(=O)o1 (configuration not stated) [4-hydroxy-6-(1-phenylbutan-2-yl)-3-(1-phenylpropyl)-2H-pyran-2-one]
Ki [2]: 32 nM
